For data set [1], the target named is T1, hMRG-X1 receptor (Homo sapiens, UniProt Q96LB2). Kind of data set: Whole cell receptor binding assay with 3H-BAM in CHO-hMRG-X1-NFAT-BLA cells. The following applies: 10 nM 3H-BAM, 4° C. How it is done:
CHO-hMRG-X1-NFAT-BLA cells were plated in a 24-well plate at 60,000 cells/well in 500 μl growth medium and incubated at 37° C. for 24 hours. The cells were washed once with 200 μl assay buffer (HANKS with 0.1% BSA and 20 mM HEPES, pH 7.5, refrigerated at 4° C.) using a vacuum aspirator. 90 μl assay buffer was added to each well followed by an addition of 0.2 μl/well diluted compounds (500X stock in DMSO) and incubated at 4° C. for 5 minutes. […] of ^3H-BAM peptide was added to each well (10 nM final concentration; ˜75,000 dpm) and the assay plate was incubated at 4° C. for 30 minutes with brief gentle shaking every 5 minutes. The assay plate was then washed rapidly with 2X 200 μl assay buffer (approximately 4 to 5 seconds for both washes). All wash steps were performed in a cold room (4° C.). To lyse the cells, 200 μl of 0.2 M NaOH was added to each well and incubate at room temperature for 30 minutes. The cell lysate in each well was transferred to a scintillation vial followed by addition of 3 ml scintillation solution (UltimaGold, PerkinElmer) and counted in a scintillation counter (1 minute per vial).

Data set [2] deals with T1, hMRG-X1 receptor. Kind of data set: Beta-lactamase (BLA) reporter-gene assay in CHO-hMRG-X1-NFAT/BLA cells. Format: cell-based. The following applies: for pIC50: antagonism of BAM15-induced BLA response. How it is done:
BLA assays in 384-well plates were performed essentially as described previously (11). For miniaturization of the BLA assay into 3456-well format, cells were serum-starved for ˜18 hours in assay medium (11) the day before the assay. On the day of the assay, cells were dissociated with enzyme-free dissociation buffer, re-suspended into assay medium and dispensed into a 3456-well nanoplate (3000 cells in 1.4 μl/well) using the FRD (Aurora Discovery, San Diego, Calif.) (13). Rest of the BLA assay was conducted essentially as described earlier (13). The cellular response was also observed by fluorescence microscopy with UV illumination. The data are plotted as a ratio of the emissions 460 nm/530 nm. Experimental data points are represented as median±standard deviation of 4-115 replicates.

For data set [3], the target named is T1, hMRG-X1 receptor. Briefly: Intracellular Ca2+ (FLIPR) assay in CHO-hMRG-X1-NFAT/Bla cells. It is filed as cell-based. The following applies: inhibition of BAM15-induced i[Ca2+] response.
Experimental: Intracellular Ca^2+ measurements were performed essentially as described (14, 15). Modifications include 8000 cells/well of the CHO-hMRG-X1-NFAT/Bla cells in 20 μgrowth medium plated in 384-well plates 24 hours before assay. Cells were loaded with 20 μl of 2X calcium probe and fluorescent quencher. Agonist was prepared as a 4× stock in HBSS buffer and added to the assay plate by the FLIPR384 pipetter (13.3 μl/well). Experimental data points are represented as median±standard deviation of 4 replicates.
For data set [4], the target named is T1, hMRG-X1 receptor. Kind of data set: Receptor trafficking/internalization assay (InCell, Transfluor) in U2OS-hMRGX1-βarrGFP cells. Format: cell-based. The conditions noted are these: for pIC50: 60 μM BAM15 (EC80), receptor trafficking. How it is done: (§1) U2OS-hMRGX1-βarrGFP stable cells were cultured in MEM supplemented with 10% heat-inactivated FBS, 4 mM L-Glutamine, 10 μg/ml Gentamicin, 10 mM HEPES, 0.4 mg/ml G-418, and 0.4 mg/ml Zeocin. Cells were plated on black/clear plastic bottom 384-well Corning plates at a density of 3000 cells/well in 20 μl growth medium and cultured overnight. DMSO, or sample compounds titrated in 75% DMSO were transferred from the compound source plate into the assay plate (200 nl/well). After 15 minutes incubation at 37° C. and 5% CO2, 5 μl of agonist (varying concentrations of BAM15 or EC80 concentration of 60 μM for compound titrations) was added and cells were incubated at 37° C. for 30 minutes. The fixing/nuclear staining solution was prepared in PBS as a 2× stock containing 4% paraformaldehyde and 2 μM DRAQ5 and 25 μl of this solution was added to the cells and incubated at room temperature in the dark for 30 minutes. The solution was then aspirated and replaced with PBS before confocal microscopy. Confocal microscopy was performed on the IN Cell Analyzer 3000 (GE Healthcare, Piscataway, N.J.).
All experiments with dose-response relationships were analyzed by a nonlinear regression software package from Graphpad (San Diego, Calif.). In the InCell 3000 imager, two excitation lines, 488 nm and 633 nm, were used to simultaneously excite βarrestin-GFP and the DRAQ5 nuclear stain, respectively. Confocal images from the IcCell 3000 were analyzed by the Raven software. Images of 200-300 cells from each well were captured and analyzed with GRN1 (granularity) algorithm using the Raven software of IN Cell Analyzer 3000. Individual cells or nuclei are first identified by thresholding the red channel (DRAQ5). From the nucleus, a rectangular bounding box was dilated out to the edge of the cell with a dilation setting of 15 pixels. […] This granularity algorithm was used to measure the number of fluorescent spots (Ngrains) based on fluorescent intensity and size of the grains and the average value from all the cells in a well were used to obtain the “Ngrain” value for the well. The same GRN1 algorithm was used to measure toxic affects or other false positives. Icyt value was used to measure the average intensity of the green fluorescence inside the bounding box as described above. Low Icyt values may indicate a sign of toxicity (resulting in either cell lyses or cells rounding up) displaying little or no GFP distribution in the cytoplasm and the plasma membrane, while high Icyt values may be due to the presence of fluorescent compound.

Data set [5] has as its system U2OS-hMRGX1-βarrGFP cells. Kind of data set: Toxicity algorithm (Icyt) on the InCell imaging assay. It is filed as cell-based. The following applies: even at 100 μM. How it is done:
as §1, with “The solution was then aspirated and replaced with PBS before confocal microscopy. Confocal microscopy was performed on the IN Cell Analyzer 3000 (GE Healthcare, Piscataway, N.J.).” left out
All experiments with dose-response relationships were analyzed by a nonlinear regression software package from Graphpad (San Diego, Calif.). […] Confocal images from the IcCell 3000 were analyzed by the Raven software. Images of 200-300 cells from each well were captured and analyzed with GRN1 (granularity) algorithm using the Raven software of IN Cell Analyzer 3000. […] Icyt value was used to measure the average intensity of the green fluorescence inside the bounding box as described above. […]

In data set [6] the target is T1, hMRG-X1 receptor. Kind of data set: Whole cell receptor binding assay with 3H-BAM in CHO-hMRG-X1-NFAT-BLA cells. The following applies: [3H]-BAM15.

pEC50, pIC50, pKd: −log10 of the molar value. Where no end group is shown, it is not given here.

T1 sequence (Q96LB2 whole entry): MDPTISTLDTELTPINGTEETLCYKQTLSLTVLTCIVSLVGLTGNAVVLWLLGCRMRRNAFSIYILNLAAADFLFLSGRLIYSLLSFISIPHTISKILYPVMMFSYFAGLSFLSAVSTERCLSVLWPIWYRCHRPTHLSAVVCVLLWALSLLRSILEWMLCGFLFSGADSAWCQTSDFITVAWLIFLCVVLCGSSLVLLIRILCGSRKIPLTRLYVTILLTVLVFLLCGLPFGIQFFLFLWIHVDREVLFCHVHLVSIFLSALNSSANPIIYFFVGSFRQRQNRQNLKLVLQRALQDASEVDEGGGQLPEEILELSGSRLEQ

For `OC(C=C1C2CCN(CC2)C1C(c1ccccc1)c1ccccc1)c1ccc(F)cc1` (centres unmarked) [Compound 8], the pIC50 at hMRG-X1 receptor [1] (read-out: IC50 Binding) is 6.20; on hMRG-X1 receptor [2] (read-out: IC50 BLA) it was 6.78; at hMRG-X1 receptor [3] (read-out: IC50 FLIPR), 6.48; on hMRG-X1 receptor [4] (read-out: IC50 InCell) it was 5.32.

For `Cc1cc(C)cc(C(O)C=C2C3CCN(CC3)C2C(c2ccccc2)c2ccccc2)c1` (centres unmarked) [Compound 9], the pIC50 was 6.70 on hMRG-X1 receptor [2] (read-out: IC50 BLA), 5.82 at hMRG-X1 receptor [3] (read-out: IC50 FLIPR) and 5.28 on hMRG-X1 receptor [4] (read-out: IC50 InCell).

For the compound `COc1ccccc1C(=O)C=C1C2CCN(CC2)C1C(c1ccccc1)c1ccccc1` (centres unmarked) [Compound 1], in data set [5], the “toxicity by toxicity algorithm on the InCell imaging assay” value is “minimal toxicity”.

As for “VGRPEWWMDYQKRYG [BAM15, reference compound]”, the pEC50 is 7.70 on hMRG-X1 receptor [2] (1.8 μl assay in 3456-well plates, FIG. 3A, read-out: EC50, BLA assay miniaturized); 6.52 to 7.40 on hMRG-X1 receptor [2] (384-well, across 5 clones, FIG. 2B, read-out: EC50s for BAM15, BLA assay); ~4.85 on hMRG-X1 receptor [4] (BAM15-induced, 30 minutes, FIG. 4, read-out: EC50 of pit phenotype (receptor internalization)). For the same compound, at hMRG-X1 receptor [6], the pKd is 7.10.

As for `COc1ccc(C(=O)OC2C3CCN(CC3)C2C(c2ccccc2)c2ccccc2)cc1OC` (centres unmarked) [Compound 2], the results for the pIC50 against hMRG-X1 receptor [2] (IC50 BLA), against hMRG-X1 receptor [3] (IC50 FLIPR) and against hMRG-X1 receptor [4] (IC50 InCell) were 7.19, 6.80 and 5.55, respectively.

As for `O=C(Nc1ccccc1Cl)OC1C2CCN(CC2)C1C(c1ccccc1)c1ccccc1` (centres unmarked) [Compound 6], the pIC50 at hMRG-X1 receptor [1] (IC50 Binding) is 6.22; at hMRG-X1 receptor [2] (IC50 BLA), 6.85; against hMRG-X1 receptor [3] (IC50 FLIPR), 6.12; against hMRG-X1 receptor [4] (IC50 InCell), 5.44.

Regarding `O=C(OC1C2CCN(CC2)C1C(c1ccccc1)c1ccccc1)c1ccccc1C(F)(F)F` (centres unmarked) [Compound 12], the pIC50 was 5.62 on hMRG-X1 receptor [1] (IC50 Binding), 6.60 at hMRG-X1 receptor [2] (IC50 BLA), 5.48 on hMRG-X1 receptor [3] (IC50 FLIPR) and 5.06 against hMRG-X1 receptor [4] (IC50 InCell).

Take `O=C(Nc1ccccc1Cl)OC1C2CCN(CC2)C1C(c1ccccc1)c1ccccc1` (centres unmarked) [Compound 14]: the pIC50 at hMRG-X1 receptor [1] (IC50 Binding) was 5.93; on hMRG-X1 receptor [2] (IC50 BLA) it was 6.43; against hMRG-X1 receptor [3] (IC50 FLIPR), 5.57; on hMRG-X1 receptor [4] (IC50 InCell) it was 4.54.

Take `COc1ccccc1C(O)C=C1C2CCN(CC2)C1C(c1ccccc1)c1ccccc1` (centres unmarked) [Compound 3]: the negative logarithm of the IC50 (pIC50) is 6.74 on hMRG-X1 receptor [1] (read-out: IC50 Binding), 7.10 on hMRG-X1 receptor [2] (read-out: IC50 BLA), 6.73 at hMRG-X1 receptor [3] (read-out: IC50 FLIPR) and 6.26 at hMRG-X1 receptor [4] (read-out: IC50 InCell).

Regarding `O=C(Nc1cccc([N+](=O)[O-])c1)OC1C2CCN(CC2)C1C(c1ccccc1)c1ccccc1` (centres unmarked) [Compound 13], the pIC50 was 5.73 on hMRG-X1 receptor [1] (IC50 Binding), 6.54 at hMRG-X1 receptor [2] (IC50 BLA), 5.89 at hMRG-X1 receptor [3] (IC50 FLIPR) and 5.20 at hMRG-X1 receptor [4] (IC50 InCell).

Consider `O=C(Nc1cccc2ccccc12)OC1C2CCN(CC2)C1C(c1ccccc1)c1ccccc1` (centres unmarked) [Compound 5], for which the pIC50 at hMRG-X1 receptor [1] (IC50 Binding) was 5.91; against hMRG-X1 receptor [2] (IC50 BLA), 6.91; at hMRG-X1 receptor [3] (IC50 FLIPR), 6.04; on hMRG-X1 receptor [4] (IC50 InCell), 5.66.

As to `N#Cc1cccc(COC2C3CCN(CC3)C2C(c2ccccc2)c2ccccc2)c1` (centres unmarked) [Compound 10], the negative-log IC50 (pIC50) at hMRG-X1 receptor [2] (read-out: IC50 BLA) was 6.68; on hMRG-X1 receptor [3] (read-out: IC50 FLIPR), 6.31; on hMRG-X1 receptor [4] (read-out: IC50 InCell), 5.00.

In the case of `FC(F)(F)c1ccccc1CNC1C2CCN(CC2)C1C(c1ccccc1)c1ccccc1` (centres unmarked) [Compound 11], the pIC50 was 5.89 on hMRG-X1 receptor [1] (read-out: IC50 Binding), 6.61 on hMRG-X1 receptor [2] (read-out: IC50 BLA), 6.34 on hMRG-X1 receptor [3] (read-out: IC50 FLIPR) and 5.28 on hMRG-X1 receptor [4] (read-out: IC50 InCell).

Regarding `COc1ccccc1NC(=S)NC1C2CCN(CC2)C1C(c1ccccc1)c1ccccc1` (centres unmarked) [Compound 15], the pIC50 on hMRG-X1 receptor [1] (read-out: IC50 Binding) was 5.60; on hMRG-X1 receptor [2] (read-out: IC50 BLA) it was 6.38; at hMRG-X1 receptor [3] (read-out: IC50 FLIPR), 5.01; on hMRG-X1 receptor [4] (read-out: IC50 InCell), 4.87.

Consider `N#Cc1ccc(COC2C3CCN(CC3)C2C(c2ccccc2)c2ccccc2)cc1` (centres unmarked) [Compound 16], for which the pIC50 was 5.73 on hMRG-X1 receptor [1] (read-out: IC50 Binding) and 6.25 on hMRG-X1 receptor [2] (read-out: IC50 BLA).

As for `C(Cc1ccccc1)=C1C2CCN(CC2)C1C(c1ccccc1)c1ccccc1` (centres unmarked) [Compound 7], the pIC50 at hMRG-X1 receptor [1] (read-out: IC50 Binding) was 5.84; at hMRG-X1 receptor [2] (read-out: IC50 BLA) it was 6.79; at hMRG-X1 receptor [3] (read-out: IC50 FLIPR) it was 6.66; on hMRG-X1 receptor [4] (read-out: IC50 InCell), 5.66.

Turning to `OC(C=C1C2CCN(CC2)C1C(c1ccccc1)c1ccccc1)c1cccc(C(F)(F)F)c1` (centres unmarked) [Compound 4], the pIC50 on hMRG-X1 receptor [2] (read-out: IC50 BLA) is 7.05; at hMRG-X1 receptor [3] (read-out: IC50 FLIPR) it was 6.68; on hMRG-X1 receptor [4] (read-out: IC50 InCell), 5.17.

Values taken from patent US20080027095A1, “Use Of 3-Substituted-2-(Diphenylmethy)-1-Azabicyclo[2.2.2]Octanes For Treating Mrg-X1 Receptor Mediated Diseases” (priority 2005, published 2008).
